Measurements reported in patent US10138233B2, “Imidazole compounds as modulators of FSHR and uses thereof” (Merck Patent GmbH, priority 2013, dated 2018).

Columns and labels:
[1] = molecular target: T1, FSHR (Homo sapiens, UniProt P23945); assay: EC50 of cyclic AMP production in CHO FSHR cells + EC20 FSH (Assay A); assay type: cell-based; settings: CHO-FSHR-LUC cells, in presence of EC20 FSH, cAMP HTRF, 1 h 37° C.
T1 construct: expressed in transfected cells; host or cells: CHO cells, clone Cho-FSHR-LUC-1-1-43
T1 sequence (P23945 18-695): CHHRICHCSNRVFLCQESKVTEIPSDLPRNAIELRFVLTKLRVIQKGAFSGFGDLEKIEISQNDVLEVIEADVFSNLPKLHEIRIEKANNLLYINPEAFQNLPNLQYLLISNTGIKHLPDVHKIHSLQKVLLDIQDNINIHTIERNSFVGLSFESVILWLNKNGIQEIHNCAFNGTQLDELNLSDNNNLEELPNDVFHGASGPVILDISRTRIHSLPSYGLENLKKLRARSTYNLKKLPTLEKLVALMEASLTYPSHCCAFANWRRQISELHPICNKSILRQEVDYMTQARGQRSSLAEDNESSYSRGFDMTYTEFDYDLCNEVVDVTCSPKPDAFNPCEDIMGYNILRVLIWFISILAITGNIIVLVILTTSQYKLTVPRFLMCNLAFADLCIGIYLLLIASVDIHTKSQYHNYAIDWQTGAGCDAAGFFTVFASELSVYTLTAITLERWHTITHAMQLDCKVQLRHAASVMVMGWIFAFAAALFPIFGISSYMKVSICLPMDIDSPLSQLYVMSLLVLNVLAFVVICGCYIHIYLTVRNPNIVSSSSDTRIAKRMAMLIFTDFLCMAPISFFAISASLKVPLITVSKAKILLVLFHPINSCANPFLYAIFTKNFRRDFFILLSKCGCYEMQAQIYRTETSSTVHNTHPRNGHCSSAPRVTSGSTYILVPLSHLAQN

[2] = molecular target: T2, follicle-stimulating hormone (FSH) receptor (Rattus norvegicus, UniProt P20395); assay: Rat Granulosa EC50 FSH (Assay B); assay type: cell-based; settings: rat granulosa cells, per Yanofsky et al. 2006
T2 construct: Rat Granulosa EC50 FSH (Assay B); endogenous in cells; host or cells: rat granulosa cells
T2 sequence (P20395 18-692): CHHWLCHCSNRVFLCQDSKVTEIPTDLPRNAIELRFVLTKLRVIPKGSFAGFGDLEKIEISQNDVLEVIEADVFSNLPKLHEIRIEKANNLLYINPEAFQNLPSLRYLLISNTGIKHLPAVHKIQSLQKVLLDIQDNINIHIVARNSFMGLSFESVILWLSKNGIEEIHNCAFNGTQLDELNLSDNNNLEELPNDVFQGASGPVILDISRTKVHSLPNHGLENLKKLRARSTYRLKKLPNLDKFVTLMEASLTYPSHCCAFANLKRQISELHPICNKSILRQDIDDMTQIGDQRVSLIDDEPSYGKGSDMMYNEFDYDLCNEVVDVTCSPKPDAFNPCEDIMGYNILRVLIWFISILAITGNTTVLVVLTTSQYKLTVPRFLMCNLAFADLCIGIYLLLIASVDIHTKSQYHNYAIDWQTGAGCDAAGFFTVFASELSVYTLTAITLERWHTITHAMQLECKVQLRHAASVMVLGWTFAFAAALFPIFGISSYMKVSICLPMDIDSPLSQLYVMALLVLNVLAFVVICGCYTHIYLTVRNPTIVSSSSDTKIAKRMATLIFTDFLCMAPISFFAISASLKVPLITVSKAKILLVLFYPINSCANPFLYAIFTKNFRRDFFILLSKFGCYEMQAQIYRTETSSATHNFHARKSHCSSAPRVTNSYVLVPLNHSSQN

EC50 [1] [nM] | EC50 [2] [nM] | Structure (SMILES)
100 to 1000 | 100 to 1000 | COc1cc2c(cc1OC(C)C)-n1c(-c3cccc(Cl)c3F)nc(C(=O)N3CCOCC3(C)C)c1CC2 [Compound 134]
< 100 | 100 to 1000 | COc1cc2c(cc1OC(C)C)-n1c(-c3cc(Cl)cs3)nc(C(=O)N3CCOCC3(C)C)c1CC2 [Compound 114]
100 to 1000 | 1000 to 5000 | COc1cc2c(cc1OC(C)C)-n1c(-c3ccc(F)c(F)c3)nc(C(=O)N3CCOCC3(C)C)c1CC2 [Compound 102]
< 100 | 100 to 1000 | COc1cc2c(cc1OC(C)C)-n1c(-c3ccc(C)s3)nc(C(=O)N3CCOCC3(C)C)c1CC2 [Compound 71]
100 to 1000 | > 5000 | COc1cc2c(cc1OC(C)C)-n1c(-c3cccc(Cl)c3)nc(C(=O)N3CCOCC3(C)C)c1CC2 [Compound 44]
100 to 1000 | > 5000 | COc1cc2c(cc1CC(C)C)-n1c(-c3ccc[nH]3)nc(C(=O)N3CCOCC3(C)C)c1CC2 [Compound 30, (3,3-Dimethyl-morpholin-4-yl)-[8-isobutyl-7-methoxy-1-(1H-pyrrol-2-yl)-4,5-dihydro-imidazo[1,5-a]quinolin-3-yl]-methanone]
< 100 | 100 to 1000 | COc1cc2c(cc1CC(C)C)-n1c(-c3ccc(F)s3)nc(C(=O)N3CCOCC3(C)C)c1CC2 [Compound 19, (3,3-Dimethyl-morpholin-4-yl)-[1-(5-fluoro-thiophen-2-yl)-8-isobutyl-7-methoxy-4,5-dihydro-imidazo[1,5-a]quinolin-3-yl]-methanone]
< 100 | 100 to 1000 | COc1cc2c(cc1OC(C)C)-n1c(-c3ccc(F)s3)nc(C(=O)N3CCOCC3(C)C)c1CC2 [Compound 59]
< 100 | 1000 to 5000 | COc1cc2c(cc1CC(C)C)-n1c(-c3ccc(F)s3)nc(C(=O)N(C)C(C)(C)C)c1CC2 [Compound 21, 1-(5-Fluoro-thiophen-2-yl)-8-isobutyl-7-methoxy-4,5-dihydro-imidazo[1,5-a]quinoline-3-carboxylic acid tert-butyl-methyl-amide]
< 100 | < 100 | COc1cc2c(cc1OC(C)C)-n1c(-c3ccc(Cl)s3)nc(C(=O)N3CCOCC3(C)C)c1CC2 [Compound 72]
< 100 | > 5000 | COc1cc2c(cc1-c1ccn(C)c1)-n1c(-c3cccs3)nc(C(=O)N3CCOCC3(C)C)c1CC2 [Compound 143, (3,3-Dimethyl-morpholin-4-yl)-[7-methoxy-8-(1-methyl-1H-pyrrol-3-yl)-1-thiophen-2-yl-4,5-dihydro-imidazo[1,5-a]quinolin-3-yl]-methanone]
100 to 1000 | > 5000 | COc1cc2c(cc1OC(C)C)-n1c(C3=CCCC3)nc(C(=O)N3CCOCC3(C)C)c1CC2 [Compound 49]

Continued, compound first:

Structure (SMILES) | EC50 [1] [nM] | EC50 [2] [nM]
COc1cc2c(cc1-c1ccn(C)n1)-n1c(-c3cccc(Cl)c3)nc(C(=O)N3CCOCC3(C)C)c1CC2 [Compound 148, (1-(3-chlorophenyl)-7-methoxy-8-(1-methyl-1H-pyrazol-3-yl)-4,5-dihydroimidazo[1,5-a]quinolin-3-yl)(3,3-dimethylmorpholino)methanone] | 100 to 1000 | 1000 to 5000
COc1cc2c(cc1CC(C)C)-n1c(S(=O)(=O)C3CC3)nc(C(=O)N(C)C(C)(C)C)c1CC2 [Compound 34, 1-Cyclopropanesulfonyl-8-isobutyl-7-methoxy-4,5-dihydro-imidazo[1,5-a]quinoline-3-carboxylic acid tert-butyl-methyl-amide] | 100 to 1000 | 1000 to 5000
COc1cc2c(cc1OC(C)C)-n1c(-c3ccsc3)nc(C(=O)N3CCCN(C(=O)C4CCC4)CC3)c1CC2 [Compound 6] | < 100 | < 100
COc1cc2c(cc1-c1cnn(C)c1)-n1c(-c3cccs3)nc(C(=O)N3CCOCC3(C)C)c1CC2 [Compound 75, (3,3-Dimethyl-morpholin-4-yl)-[7-methoxy-8-(1-methyl-1H-pyrazol-4-yl)-1-thiophen-2-yl-4,5-dihydro-imidazo[1,5-a]quinolin-3-yl]-methanone] | < 100 | 100 to 1000
COc1cc2c(cc1-c1c[nH]nc1C)-n1c(-c3ccsc3)nc(C(=O)N(C)C(C)(C)C)c1CC2 [Compound 76, 7-Methoxy-8-(3-methyl-1H-pyrazol-4-yl)-1-thiophen-3-yl-4,5-dihydro-imidazo+1,5-a+quinoline-3-carboxylic acid tert-butyl-methyl-amide] | < 100 | 100 to 1000
COc1cc2c(cc1OC(C)C)-n1c(-c3cccs3)nc(C(=O)N3CCOCC3(C)C)c1CO2 [Compound 139, (3,3-Dimethyl-morpholin-4-yl)-(8-isopropoxy-7-methoxy-1-thiophen-2-yl-4H-5-oxa-2,9b-diaza-cyclopenta[a]naphthalen-3-yl)-methanone] | < 100 | 100 to 1000
COc1cc2c(cc1OC(C)C)-n1c(-c3ccsc3)nc(C(=O)N(C)C(C)(C)C)c1CO2 [Compound 135, 8-Isopropoxy-7-methoxy-1-thiophen-3-yl-4H-5-oxa-2,9b-diaza-cyclopenta[a]naphthalene-3-carboxylic acid tert-butyl-methyl-amide] | < 100 | > 5000
COc1cc2c(cc1CC(C)C)-n1c(-c3cccs3)nc(C(=O)N(C)CCN3CCOC3=O)c1CC2 [Compound 25, 8-Isobutyl-7-methoxy-1-thiophen-2-yl-4,5-dihydro-imidazo[1,5-a]quinoline-3-carboxylic acid methyl-[2-(2-oxo-oxazolidin-3-yl)-ethyl]-amide] | < 100 | 100 to 1000
COc1cc2c(cc1CC(C)C)-n1c(-c3ccc(Cl)s3)nc(C(=O)N(C)C(C)(C)C)c1CC2 [Compound 97, 1-(5-Chloro-thiophen-2-yl)-8-isobutyl-7-methoxy-4,5-dihydro-imidazo[1,5-a]quinoline-3-carboxylic acid tert-butyl-methyl-amide] | < 100 | 100 to 1000
COc1cc2c(cc1OC(C)C)-n1c(-c3cccs3)nc(C(=O)N(C)C(C)(C)C)c1CC2 [Compound 11, 8-Isopropoxy-7-methoxy-1-thiophen-2-yl-4,5-dihydro-imidazo[1,5-a]quinoline-3-carboxylic acid tert-butyl-methyl-amide] | 100 to 1000 | > 5000
[2H]C([2H])([2H])Oc1cc2c(cc1CC(C)C)-n1c(-c3cccs3)nc(C(=O)N(C)C(C)(C)C)c1CC2 [Compound 53, 8-Isobutyl-7-methoxy-d3-1-thiophen-2-yl-4,5-dihydro-imidazo[1,5-a]quinoline-3-carboxylic acid tert-butyl-methyl-amide] | < 100 | 1000 to 5000
[2H]C([2H])([2H])n1cc(-c2cc3c(cc2OC)CCc2c(C(=O)N4CCOCC4(C)C)nc(-c4cccn4C)n2-3)cn1 [Compound 149, (3,3-dimethylmorpholino)(7-methoxy-8-(1-methyl-1H pyrazol-4-yl)-1-(1-methyl-1H-pyrrol-2-yl)-4,5-dihydroimidazo[1,5-a]quinolin-3-yl)methanone] | < 100 | 1000 to 5000
COc1cc2c(cc1OC(C)C)-n1c(-c3cccs3)nc(C(=O)N3CCCN(C(=O)C4CCC4)CC3)c1CC2 [Compound 7] | < 100 | 100 to 1000
[2H]C([2H])([2H])OCC(C)(C)N(C(=O)c1nc(-c2cccs2)n2c1CCc1cc(OC)c(CC(C)C)cc1-2)C([2H])([2H])[2H] [Compound 32, 8-Isobutyl-7-methoxy-1-thiophen-2-yl-4,5-dihydro-imidazo[1,5-a]quinoline-3-carboxylic acid (2-methoxy-d3-1,1-dimethyl-ethyl)-methyl-d3-amide] | < 100 | > 5000
